Data set [1] concerns the target glucose-6-phosphate dehydrogenase. Also noted: method as in PMID 29947262. To be noted: cited from earlier work.
Data set [2] addresses T1, human carbonic anhydrase I (hCA I) (Homo sapiens, UniProt P00915).
T1 construct: from tissue
Kind of data set: CO2 hydratase activity assay (Maren method), hCA I. In kind it is biochemical. The note with it: hydratase method; enzyme purified from human erythrocytes; read-out: IC50 (hydratase) hCA I. The procedure: (§1) Blood samples (25 ml) from healthy human volunteers were collected. They were centrifuged at 1000g for 20 min at 4 °C, and the supernatant was removed. The packed erythrocytes were washed three times with 0.9% NaCl and then were hemolyzed in cold water. The pH of the hemolysate was adjusted to 8.5 with the solid Tris base. The 25-ml hemolysate was applied to an affinity column containing y Sepharose 4B-ethylene diamine-4-isothiocyanato-benzenesulfonamide[14]. CA isozymes were then eluted with 0.1 M NaCl/25 mM Na2HPO4 (pH 6.3) and 0.1 M CH3COONa/0.5 M NaClO4 (pH 5.6), which recovered hCA I and II, respectively.
(§2) CA activity was measured by the Maren method based on the determination of the time required for the pH to decrease from 10.0 to 7.4 due to CO2 hydration. The assay solution was 0.5 M Na2CO3/0.1 M NaHCO3 (pH 10.0), and phenol red was added as the pH indicator. Carbon dioxide-hydratase activity was calculated in enzyme units (EU) with the following equation: t0 – tc/tc, where t0 and tc are the times for the pH change of the nonenzymatic and the enzymatic reactions, respectively.
(§3) The drugs were triturated in a porcelain mortar pestle. Stock solutions of both drugs were prepared in dimethyl sulfoxide (DMSO). Different concentrations of the drugs were added to the enzyme activity determination medium with a total volume of 4.2 ml. The duration (in seconds) of the colour change from red to yellow in solution was measured in a 10-ml glass tube with a diameter of 1 cm. Control cuvette activity in the absence of the inhibitor was set at 100%. All compounds were tested in triplicate at each concentration used. For each inhibitor, an activity %–[inhibitor] graph was drawn (data not shown).

Data set [3] addresses T2, human carbonic anhydrase II (hCA II) (Homo sapiens, UniProt P00918).
T2 construct: from tissue
Kind of data set: CO2 hydratase activity assay (Maren method), hCA II. In kind it is biochemical. The note with it: hydratase method; enzyme purified from human erythrocytes; read-out: IC50 (hydratase) hCA II. The procedure: as §1, §2, §3

Data set [4] concerns the target T1, human carbonic anhydrase I (hCA I). Kind of data set: Esterase activity assay (4-nitrophenyl-acetate), hCA I. Type of data set: biochemical. The note with it: esterase method, 4-nitrophenyl-acetate, 348 nm, 25 °C; read-out: IC50 (esterase) hCA I. The procedure:
(§4) Blood samples (25 ml) from healthy human volunteers were collected. They were centrifuged at 1000g for 20 min at 4 °C, and the supernatant was removed. The packed erythrocytes were washed three times with 0.9% NaCl and then were hemolyzed in cold water. The pH of the hemolysate was adjusted to 8.5 with the solid Tris base. The 25-ml hemolysate was applied to an affinity column containing y Sepharose 4B-ethylene diamine-4-isothiocyanato-benzenesulfonamide[14].
(§5) The inhibitory effects of the drugs on enzyme activities were tested under in vitro conditions.

In data set [5] the target is T2, human carbonic anhydrase II (hCA II). Kind of data set: Esterase activity assay (4-nitrophenyl-acetate), hCA II. Type of data set: biochemical. The note with it: esterase method, 4-nitrophenyl-acetate, 348 nm, 25 °C; read-out: IC50 (esterase) hCA II. The procedure:
as §4, §5

The test system of a further data set is CYP3A4. Also noted: method as in earlier work. The note with it: concentration-dependent; read-out: IC50, CYP3A4 enzyme activity; cited from earlier work.
Data set [6] deals with 15 hCA isoforms (hCA I–XIV). To be noted: cited from earlier work.
A further data set has as its system aldehyde oxidase. Also noted: method as in PMID 14681337. To be noted: read-out: aldehyde oxidase inhibition (concentration printed without endpoint name); cited from earlier work.
Data set [7] has as its system CA-I levels / atherosclerosis. Details: method as in PMID 31354482. The note with it: cited from earlier work.

Entries after “also recorded” stand apart in the source; their conditions may differ.

T1 sequence (P00915 whole entry): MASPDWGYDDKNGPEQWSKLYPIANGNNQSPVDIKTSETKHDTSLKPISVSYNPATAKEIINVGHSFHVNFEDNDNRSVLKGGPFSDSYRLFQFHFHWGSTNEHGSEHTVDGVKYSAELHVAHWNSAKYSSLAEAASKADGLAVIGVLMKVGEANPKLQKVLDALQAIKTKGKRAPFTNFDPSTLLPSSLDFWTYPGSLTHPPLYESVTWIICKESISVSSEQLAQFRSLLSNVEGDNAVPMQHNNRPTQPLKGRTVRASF

Regarding `NS(=O)(=O)c1cc(C(=O)O)c(NCc2ccco2)cc1Cl` [Furosemide], the IC50 in data set [1] was 526 µM.
In the case of `CC(C)c1c(C(=O)Nc2ccccc2)c(-c2ccccc2)c(-c2ccc(F)cc2)n1CC[C@@H](O)C[C@@H](O)CC(=O)O` [Atorvastatin], the IC50 in [2] was 243 µM; in data set [3], 390 µM; in [4], 7.75 µM; in data set [5], 9.85 µM; in the data set on CYP3A4 it was […]. Further, the “inhibition of the 15 hCA isoforms (hCA I–XIV)” value in [6] is recorded as “submicromolar–low nanomolar inhibition”.
As to `CCOC(=O)C1=C(COCCN)NC(C)=C(C(=O)OC)C1c1ccccc1Cl` (stereo not drawn) [Amlodipine], the IC50 was 133 µM in [2]; 126 µM in data set [3]; 38.5 µM in [4]; 38.8 µM in data set [5]; 5.5 µM in the data set on aldehyde oxidase.
`CC(=O)/N=c1/sc(S(N)(=O)=O)nn1C` [methazolamide]: the “CA-I levels / CA-I expression” value in [7] (animal atherosclerosis model) is given as “decreased CA-I levels; also recorded: suppresses CA-I expression”. Also, the atherosclerosis result in data set [7] is on record as “significantly reduces atherosclerosis”.
For the molecule `COc1ccccc1OCC(O)CN1CCN(CC(=O)Nc2c(C)cccc2C)CC1` (stereo not drawn) [Ranolazine], the IC50 in data set [2] is 503 µM; in data set [3], 544 µM; in data set [4], 600 µM; in [5], 645 µM.

Values taken from article PMC7717712, “The effects of cardiac drugs on human erythrocyte carbonic anhydrase I and II isozymes” (Journal of Enzyme Inhibition and Medicinal Chemistry, 2020).
